Target: PI3K-alpha (Homo sapiens (Human), UniProt P42336)
Test: HTRF PI3K biochemical assay, alpha isoform
Conditions: ratio PI3K-alpha IC50 value/PI3K-delta IC50 value

PI3K-alpha, sequence (P42336 whole entry, looked up, canonical isoform): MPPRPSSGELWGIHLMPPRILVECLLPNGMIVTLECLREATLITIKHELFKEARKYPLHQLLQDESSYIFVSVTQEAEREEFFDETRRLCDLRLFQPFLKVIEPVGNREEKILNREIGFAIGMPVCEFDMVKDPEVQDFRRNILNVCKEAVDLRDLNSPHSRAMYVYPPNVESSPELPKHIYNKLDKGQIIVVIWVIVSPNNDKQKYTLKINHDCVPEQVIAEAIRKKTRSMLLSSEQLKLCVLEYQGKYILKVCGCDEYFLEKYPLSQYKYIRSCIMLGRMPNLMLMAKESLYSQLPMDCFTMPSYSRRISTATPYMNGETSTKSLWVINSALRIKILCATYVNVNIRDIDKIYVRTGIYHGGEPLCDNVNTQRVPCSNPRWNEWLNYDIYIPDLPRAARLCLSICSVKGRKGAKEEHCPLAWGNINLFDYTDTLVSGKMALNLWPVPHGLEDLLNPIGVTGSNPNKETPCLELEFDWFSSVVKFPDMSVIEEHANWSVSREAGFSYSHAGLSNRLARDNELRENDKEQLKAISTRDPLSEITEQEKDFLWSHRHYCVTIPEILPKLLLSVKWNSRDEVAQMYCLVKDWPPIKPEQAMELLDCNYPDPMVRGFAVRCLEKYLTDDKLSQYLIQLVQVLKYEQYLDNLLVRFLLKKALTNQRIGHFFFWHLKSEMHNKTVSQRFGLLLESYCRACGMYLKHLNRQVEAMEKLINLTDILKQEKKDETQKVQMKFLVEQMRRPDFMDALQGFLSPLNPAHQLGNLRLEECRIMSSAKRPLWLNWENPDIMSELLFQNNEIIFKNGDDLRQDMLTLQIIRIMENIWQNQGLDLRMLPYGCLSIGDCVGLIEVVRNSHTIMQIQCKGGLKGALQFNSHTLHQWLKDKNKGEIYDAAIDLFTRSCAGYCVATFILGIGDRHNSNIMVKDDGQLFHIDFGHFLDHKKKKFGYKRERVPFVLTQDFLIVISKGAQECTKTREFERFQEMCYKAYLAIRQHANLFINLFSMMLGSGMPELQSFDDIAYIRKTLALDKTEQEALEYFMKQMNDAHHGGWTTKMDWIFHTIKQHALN
PI3K-alpha, sequence (P27986 whole entry partner, looked up, canonical isoform): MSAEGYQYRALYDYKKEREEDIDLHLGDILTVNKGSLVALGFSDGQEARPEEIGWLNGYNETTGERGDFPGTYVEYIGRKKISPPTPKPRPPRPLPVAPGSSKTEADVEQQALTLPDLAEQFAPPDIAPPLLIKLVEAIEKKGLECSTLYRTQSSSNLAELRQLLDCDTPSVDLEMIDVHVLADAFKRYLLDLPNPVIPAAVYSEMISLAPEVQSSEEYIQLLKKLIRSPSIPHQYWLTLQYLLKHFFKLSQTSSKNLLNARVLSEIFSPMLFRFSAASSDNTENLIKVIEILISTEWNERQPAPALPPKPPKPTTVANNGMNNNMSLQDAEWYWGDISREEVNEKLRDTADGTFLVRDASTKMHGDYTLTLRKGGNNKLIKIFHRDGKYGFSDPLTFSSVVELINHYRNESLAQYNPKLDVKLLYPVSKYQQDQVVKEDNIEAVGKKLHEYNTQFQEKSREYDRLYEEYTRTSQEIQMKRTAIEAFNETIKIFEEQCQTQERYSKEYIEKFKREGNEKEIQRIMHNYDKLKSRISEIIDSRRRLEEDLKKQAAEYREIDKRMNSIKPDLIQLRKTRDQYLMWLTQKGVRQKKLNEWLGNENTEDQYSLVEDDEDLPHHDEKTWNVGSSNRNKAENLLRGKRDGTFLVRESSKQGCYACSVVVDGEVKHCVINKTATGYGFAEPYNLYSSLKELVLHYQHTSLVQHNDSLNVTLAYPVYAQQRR

SMILES | Relative Selectivity versus PI3Kalpha
CCn1c(-c2ccc(OC(F)F)nc2)nc2c(O[C@H]3CCN(C(=O)C4CC4)C3)ncnc21 [Compound 2-147, 6-{[(3S)-1-(cyclopropylcarbonyl)pyrrolidin-3-yl]oxy}-8-[6-(difluoromethoxy)pyridin-3-yl]-9-ethyl-9H-purine] | >10
CCC(=O)N1CC[C@H](Oc2ncnc3c2nc(-c2ccc4cn[nH]c4c2)n3C)C1 [Compound 3-1, (S)-1-(3-((8-(1H-indazol-6-yl)-9-methyl-9H-purin-6-yl)oxy)pyrrolidin-1-yl)propan-1-one] | >10
CCC(=O)N1CC[C@H](Oc2ncnc3c2nc(-c2ccc(C(F)(F)F)nc2)n3C)C1 [Compound 3-2, (S)-1-(3-((9-methyl-8-(6-(trifluoromethyl)pyridin-3-yl)-9H-purin-6-yl)oxy)pyrrolidin-1-yl)propan-1-one] | >10
CCC(=O)N1CC[C@H](Oc2ncnc3c2nc(-c2cnc4[nH]ccc4c2)n3C)C1 [Compound 3-3, (S)-1-(3-((9-methyl-8-(1H-pyrrolo[2,3-b]pyridin-5-yl)-9H-purin-6-yl)oxy)pyrrolidin-1-yl)propan-1-one] | >10
CCC(=O)N1CC[C@H](Oc2ncnc3c2nc(-c2ccc4cc[nH]c4c2)n3C)C1 [Compound 3-4, (S)-1-(3-((8-(1H-indol-6-yl)-9-methyl-9H-purin-6-yl)oxy)pyrrolidin-1-yl)propan-1-one] | >10
CCC(=O)N1CC[C@H](Oc2ncnc3c2nc(-c2ccc4[nH]ncc4c2)n3C)C1 [Compound 3-5, (S)-1-(3-((8-(1H-indazol-5-yl)-9-methyl-9H-purin-6-yl)oxy)pyrrolidin-1-yl)propan-1-one] | >10
CCC(=O)N1CC[C@H](Oc2ncnc3c2nc(-c2cnc(OC)c(C(F)(F)F)c2)n3C)C1 [Compound 3-6, (S)-1-(3-((8-(6-methoxy-5-(trifluoromethyl)pyridin-3-yl)-9-methyl-9H-purin-6-yl)oxy)pyrrolidin-1-yl)propan-1-one] | >10
CCC(=O)N1CC[C@H](Oc2ncnc3c2nc(-c2ccc4[nH]ccc4c2)n3C)C1 [Compound 3-7, (S)-1-(3-((8-(1H-indol-5-yl)-9-methyl-9H-purin-6-yl)oxy)pyrrolidin-1-yl)propan-1-one] | >10
CCC(=O)N1CC[C@H](Oc2ncnc3c2nc(-c2ccc(C)nc2)n3C)C1 [Compound 3-8, (S)-1-(3-((9-methyl-8-(6-methylpyridin-3-yl)-9H-purin-6-yl)oxy)pyrrolidin-1-yl)propan-1-one] | >10
CCC(=O)N1CC[C@H](Oc2ncnc3c2nc(-c2cc(O)cc(F)c2)n3C)C1 [Compound 3-9, 3-fluoro-5-(9-methyl-6-{[(3S)-1-propanoylpyrrolidin-3-yl]oxy}-9H-purin-8-yl)phenol] | >10
CCC(=O)N1CC[C@H](Oc2ncnc3c2nc(-c2cnc4[nH]nc(C)c4c2)n3C)C1 [Compound 3-10, 9-methyl-8-(3-methyl-1H-pyrazolo[3,4-b]pyridin-5-yl)-6-{[(3S)-1-propanoylpyrrolidin-3-yl]oxy}-9H-purine] | >10
CCC(=O)N1CC[C@H](Oc2ncnc3c2nc(-c2cnn(-c4ccccc4)c2)n3C)C1 [Compound 3-11, 9-methyl-8-(1-phenyl-1H-pyrazol-4-yl)-6-{[(3S)-1-propanoylpyrrolidin-3-yl]oxy}-9H-purine] | >10
CCC(=O)N1CC[C@H](Oc2ncnc3c2nc(-c2cnn(-c4ccccc4)c2C)n3C)C1 [Compound 3-12, 9-methyl-8-(5-methyl-1-phenyl-1H-pyrazol-4-yl)-6-{[(3S)-1-propanoylpyrrolidin-3-yl]oxy}-9H-purine] | >10
CCC(=O)N1CC[C@H](Oc2ncnc3[nH]c(-c4cnn(CC)c4C)nc23)C1 [Compound 3-13, 8-(1-ethyl-5-methyl-1H-pyrazol-4-yl)-6-{[(3S)-1-propanoylpyrrolidin-3-yl]oxy}-9H-purine] | >10
CCC(=O)N1CC[C@H](Oc2ncnc3c2nc(-c2cc(F)cc(NS(C)(=O)=O)c2)n3C)C1 [Compound 3-14, N-[3-fluoro-5-(9-methyl-6-{[(3S)-1-propanoylpyrrolidin-3-yl]oxy}-9H-purin-8-yl)phenyl]methanesulfonamide] | >10
CCC(=O)N1CC[C@H](Oc2ncnc3c2nc(-c2cncc(N)c2)n3C)C1 [Compound 3-15, 5-(9-methyl-5-{[(3S)-1-propanoylpyrrolidin-3-yl]oxy}-9H-purin-8-yl)pyridin-3-amine] | >10
CCC(=O)N1CC[C@H](Oc2ncnc3c2nc(-c2cnn(C(C)(C)C)c2)n3C)C1 [Compound 3-16, 8-(1-tert-butyl-1H-pyrazol-4-yl)-9-methyl-6-{[(3S)-1-propanoylpyrrolidin-3-yl]oxy}-9H-purine] | >10
CCC(=O)N1CC[C@H](Oc2ncnc3c2nc(-c2ccc(Cl)nc2)n3C)C1 [Compound 3-17, 8-(6-chloropyridin-3-yl)-9-methyl-6-{[(3S)-1-propanoylpyrrolidin-3-yl]oxy}-9H-purine] | >10

SMILES | Relative Selectivity versus PI3Kalpha
CCCn1c(-c2cnn(CC)c2C)nc2c(O[C@H]3CCN(C(=O)CC)C3)ncnc21 [Compound 3-18, 8-(1-ethyl-5-methyl-1H-pyrazol-4-yl)-6-{[(3S)-1-propanoylpyrrolidin-3-yl]oxy}-9-propyl-9H-purine] | >10
CCCn1c(-c2cnc(C)nc2)nc2c(O[C@H]3CCN(C(=O)CC)C3)ncnc21 [Compound 3-19, 8-(2-methylpyrimidin-5-yl)-6-{[(3S)-1-propanoylpyrrolidin-3-yl]oxy}-9-propyl-9H-purine] | >10
CCC(=O)N1CC[C@H](Oc2ncnc3c2nc(-c2cnc(C)nc2)n3C)C1 [Compound 3-20, 9-methyl-8-(2-methylpyrimidin-5-yl)-6-{[(3S)-1-propanoylpyrrolidin-3-yl]oxy}-9H-purine] | >10
CCC(=O)N1CC[C@H](Oc2ncnc3c2nc(-c2cnn(CC)c2C)n3CC(F)F)C1 [Compound 3-21, 9-(2,2-difluoroethyl)-8-(1-ethyl-5-methyl-1H-pyrazol-4-yl)-6-{[(3S)-1-propanoylpyrrolidin-3-yl]oxy}-9H-purine] | >10
CCC(=O)N1CC[C@H](Oc2ncnc3c2nc(-c2cnn4c2CCC4)n3C)C1 [Compound 3-22, 8-(5,6-dihydro-4H-pyrrolo[1,2-b]pyrazol-3-yl)-9-methyl-6-{[(3S)-1-propanoylpyrrolidin-3-yl]oxy}-9H-purine] | >10
CCn1c(-c2cnn(-c3ccccc3)c2C)nc2c(O[C@H]3CCN(C(=O)C4CC4)C3)ncnc21 [Compound 3-23, 6-{[(3S)-1-(cyclopropylcarbonyl)pyrrolidin-3-yl]oxy}-9-ethyl-8-(5-methyl-1-phenyl-1H-pyrazol-4-yl)-9H-purine] | >10
CCn1c(-c2ccc(OC)c(F)c2)nc2c(O[C@H]3CCN(C(=O)C4CC4)C3)ncnc21 [Compound 3-24, 6-{[(3S)-1-(cyclopropylcarbonyl)pyrrolidin-3-yl]oxy}-9-ethyl-8-(3-fluoro-4-methoxyphenyl)-9H-purine] | >10
CCn1c(-c2cnc3[nH]ccc3c2)nc2c(O[C@H]3CCN(C(=O)C4CC4)C3)ncnc21 [Compound 3-25, 6-{[(3S)-1-(cyclopropylcarbonyl)pyrrolidin-3-yl]oxy}-9-ethyl-8-(1H-pyrrolo[2,3-b]pyridin-5-yl)-9H-purine] | >10
CCn1c(-c2cnc(OC)c(C(F)(F)F)c2)nc2c(O[C@H]3CCN(C(=O)C4CC4)C3)ncnc21 [Compound 3-26, 5-{[(3S)-1-(cyclopropylcarbonyl)pyrrolidin-3-yl]oxy}-9-ethyl-8-[6-methoxy-5-(trifluoromethyl)pyridin-3-yl]-9H-purine] | >10
CCn1c(-c2cnc(OC)nc2)nc2c(O[C@H]3CCN(C(=O)C4CC4)C3)ncnc21 [Compound 3-27, 6-{[(3S)-1-(cyclopropylcarbonyl)pyrrolidin-3-yl]oxy}-9-ethyl-8-(2-methoxypyrimidin-5-yl)-9H-purine] | >10
CCn1c(-c2cnc(OC)c(Cl)c2)nc2c(O[C@H]3CCN(C(=O)C4CC4)C3)ncnc21 [Compound 3-28, 8-(5-chloro-6-methoxypyridin-3-yl)-6-{[(3S)-1-(cyclopropylcarbonyl)pyrrolidin-3-yl]oxy}-9-ethyl-9H-purine] | >10
CCn1c(-c2cnc(C)nc2C)nc2c(O[C@H]3CCN(C(=O)C4CC4)C3)ncnc21 [Compound 3-29, 6-{[(3S)-1-(cyclopropylcarbonyl)pyrrolidin-3-yl]oxy}-8-(2,4-dimethylpyrimidin-5-yl)-9-ethyl-9H-purine] | >10
CCn1c(-c2cnc(C)c(F)c2)nc2c(O[C@H]3CCN(C(=O)C4CC4)C3)ncnc21 [Compound 3-30, 6-{[(3S)-1-(cyclopropylcarbonyl)pyrrolidin-3-yl]oxy}-9-ethyl-8-(5-fluoro-6-methylpyridin-3-yl)-9H-purine] | >10
CCC(=O)N1CC[C@H](Oc2ncnc3c2nc(I)n3C)C1 [Compound 3-31, 8-iodo-9-methyl-6-{[(3S)-1-propanoylpyrrolidin-3-yl]oxy}-9H-purine] | >10
CCC(=O)N1CC[C@H](Oc2ncnc3c2nc(-c2ccc(OC)c(F)c2)n3C)C1 [Compound 3-32, 8-(3-fluoro-4-methoxyphenyl)-9-methyl-5-{[(3S)-1-propanoylpyrrolidin-3-yl]oxy}-9H-purine] | >10
CCC(=O)N1CC[C@H](Oc2ncnc3c2nc(-c2ccc(OC)nc2)n3C)C1 [Compound 3-33, 8-(6-methoxypyridin-3-yl)-9-methyl-6-{[(3S)-1-propanoylpyrrolidin-3-yl]oxy}-9H-purine] | >10
CCC(=O)N1CC[C@H](Oc2ncnc3c2nc(-c2cnc(OC)c(F)c2)n3C)C1 [Compound 3-34, 8-(5-fluoro-6-methoxypyridin-3-yl)-9-methyl-6-{[(3S)-1-propanoylpyrrolidin-3-yl]oxy}-9H-purine] | >10

From patent US9730940B2, “Purine inhibitors of human phosphatidylinositol 3-kinase delta” (priority 2012, dated 2017)
